What was measured:
male C57BL/6J mice = test: Acetone-ether-water (AEW)-induced pruritus model, oral dosing; format: in vivo, mouse
Description: (§1) The efficacy of KM-001 was assessed in an acetone-ether-water (AEW)-induced pruritus model in male C57BL/6J mice, a model induced by daily treatment of an acetone/ether (1:1) mixture and water applied to the animal's cheek. KM-001 (10 mg/kg, 1 mg/kg, 0.1 mg/kg and 0.01 mg/kg) was administered orally to 20 mice. The amount of time spent scratching and the number of bouts during the 20 minutes were recorded by an observer. Blood and skin samples were collected at 0, 0.5 hr, 1 hr and 1.5 hr post dosing.

TRPV3 = TRPV3 (Homo sapiens, UniProt Q8NET8); settings: read-out: IC50 (inhibit TRPV3); found in US 2002/0332697 A1; cited from earlier work
Chain of TRPV3 (Q8NET8 whole entry, species assumed): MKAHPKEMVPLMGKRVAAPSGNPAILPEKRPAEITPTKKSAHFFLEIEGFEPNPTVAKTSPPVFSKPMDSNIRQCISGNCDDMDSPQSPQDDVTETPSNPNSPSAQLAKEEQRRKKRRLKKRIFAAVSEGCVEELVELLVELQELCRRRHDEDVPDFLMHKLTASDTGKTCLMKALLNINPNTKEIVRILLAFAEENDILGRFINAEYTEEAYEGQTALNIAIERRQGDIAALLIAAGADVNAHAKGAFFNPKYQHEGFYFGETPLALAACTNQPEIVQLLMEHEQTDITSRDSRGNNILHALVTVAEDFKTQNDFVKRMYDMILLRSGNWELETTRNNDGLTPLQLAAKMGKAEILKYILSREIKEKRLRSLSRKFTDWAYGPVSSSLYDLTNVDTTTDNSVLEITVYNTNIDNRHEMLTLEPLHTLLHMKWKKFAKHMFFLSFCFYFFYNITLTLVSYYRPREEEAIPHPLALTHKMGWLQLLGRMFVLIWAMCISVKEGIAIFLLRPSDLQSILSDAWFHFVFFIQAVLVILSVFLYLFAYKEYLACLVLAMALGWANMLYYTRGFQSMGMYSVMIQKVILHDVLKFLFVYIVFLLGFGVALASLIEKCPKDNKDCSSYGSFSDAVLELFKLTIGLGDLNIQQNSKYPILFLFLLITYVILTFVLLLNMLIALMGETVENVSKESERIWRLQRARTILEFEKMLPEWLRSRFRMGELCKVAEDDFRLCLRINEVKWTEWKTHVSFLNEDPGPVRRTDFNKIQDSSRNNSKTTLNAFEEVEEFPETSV

[1] = 28-day oral repeat dose toxicity study, systemic exposure; format: in vivo, rat; settings: for AUC0-tlast / Cmax: Rat, oral
Description: (§2) I: Blood concentrations of KM-001 were evaluated using a validated analytical method as part of the toxicity studies in minipigs and rats.

[2] = Blood concentrations in minipig dermal toxicity study (13 weeks); format: in vivo; settings: for AUC0-tlast / Cmax: MiniPig, 6 g/day
Description: as §2

keratinocytes = settings: found in US 2002/0332697 A1, cited from earlier work
[3] = Saturated solubility, shake flask method, UPLC-UV; format: physicochemical; settings: for Saturated Solubility API: RT, 24 hours
Description: Saturated solubility was determined using the shake flask method with excess API at room temperature (RT). It was assumed that equilibrium was attained after 24 hours, and excess solid was separated by ultrafiltration prior to dilution and quantification. Quantification of KM-001 for saturated solubility studies was performed using a qualified UPLC-UV analytical method.

[4] = Plasma concentration in AEW pruritus study, oral dosing; format: in vivo, mouse; settings: mice, oral 0.1 mg/kg
Description: as §1

[5] = Estimated human systemic exposure and safety margins (dose-linear extrapolation from minipig PK)
Description: as §2

DS-Nh mice = test: DS-Nh mouse model, topical dosing (scratching behavior, skin histology); format: in vivo
Text: DS-Nh mice raised under conventional conditions spontaneously develop dermatitis and skin abnormalities characterized by hyperkeratosis, reduced basal keratinocytes proliferation, defective differentiation, and keratinization of skin appendages.
At the end of the study, the mice were sacrificed, and skin biopsies were paraffin-embedded, stained with hematoxylin and eosin (H&E) and assessed microscopically (FIG. 7).

[6] = 0.5% formulation, 2.25 mg/kg*day, Week 13
[7] = 1.0% formulation, 4.5 mg/kg*day, Week 13

For “(S)-2-(1,3-dimethyl-2-6-dioxo-2,3-1h-purin-7(6H)-N-(4-(3-Fluoro-4-2methylpyrrolidin-1-yl)phenyl)thiazol-2-yl)acetamide [KM-001]”, the scratching bouts (male C57BL/6J mice; oral 0.01 mg/kg) was “trended to decrease”, the scratching time (male C57BL/6J mice; oral 0.01 mg/kg) was “trended to decrease” and the scratching time (male C57BL/6J mice; oral 0.1 mg/kg, p<0.001) was “significantly decreased”. The scratching bouts (male C57BL/6J mice; oral 0.1 mg/kg, p<0.01) was “significantly decreased”, the IC50 (TRPV3) was roughly 3 nM and the NOAEL ([1]; 28-day oral repeat dose toxicity study in the rat) was 10 mg/kg/day. For the same molecule, the AUC0-tlast ([1]; 1 mg/kg*day, Day 28) was 479 ng·h/mL, the Cmax ([1]; 1 mg/kg*day, Day 28, mean male and female) was 97 ng/mL and the AUC0-tlast ([1]; 5 mg/kg*day, Day 28) was 4570 ng·h/mL. It also gave a Cmax ([1]; 5 mg/kg*day, Day 28) of 525 ng/mL, a Cmax ([1]; 10 mg/kg*day (NOAEL), Day 28) of 968 ng/mL and an AUC0-tlast ([1]; 10 mg/kg*day, Day 28) of 8360 ng·h/mL. The AUC ([1]; rat, 28-day oral repeat dose, at NOAEL of 10 mg/kg/day) was 8357 ng·h/mL, the AUC0-tlast ([2]; 0.1% formulation, 0.45 mg/kg*day, Week 13) was 16.6 ng·h/mL and the Cmax ([2]; 0.1% formulation, 0.45 mg/kg*day, Week 13, mean male and female) was 2.3 ng/mL. The AUC0-tlast [2, 6] was 73.7 ng·h/mL, the Cmax [2, 6] was 5.3 ng/mL and the AUC0-tlast [2, 7] was 159 ng·h/mL. The Cmax [2, 7] was 10.8 ng/mL, the AUC ([2]; minipigs, 4.5 mg KM-001/kg/day) was 159.1 ng·h/mL and the “Ca^+2 flux in keratinocytes” value (keratinocytes) was “significantly reduced”. For the same molecule, the differentiation markers (keratinocytes; keratinocytes) was “normalized”, the “solubility in triglycerides and fatty alcohols” value [3] was “relatively soluble” and the “Saturated Solubility API” value ([3]; M1: Miglyol 812 N 33.3%, Arlamol E 62.5%, Phenoxy-2-ethanol 4.2%) was 13.1 % w/w. For the same molecule, the “Saturated Solubility API” value ([3]; M2: Miglyol 812 N 8%, Arlamol E 15%, Macrol-82 77%) was 0.7 % w/w, the “Saturated Solubility API” value ([3]; M3: Miglyol 812 N 10%, Kollicream OD 10%, Macrol-82 75%, Kollicream OA 5%) was 1.5 % w/w and the “Saturated Solubility API” value ([3]; M6: Miglyol 812 N 20%, Arlamol E 16%, Kollicream OA 10%, Macrol-82 54%) was 4.0 % w/w. For the same molecule, the “Saturated Solubility API” value ([3]; M10: Miglyol 812 N 20%, Crodamol IPM 21.85%, Kollicream OA 5%, Light Mineral Oil 53.15%) was 1.6 % w/w, the “Saturated Solubility API” value ([3]; M13: Miglyol 812 N 47.83%, Kollicream OD 52.17%) was 13.0 % w/w and the “Saturated Solubility API” value ([3]; M14: Miglyol 812 N 45.83%, Kollicream OD 50%, Phenoxy-2-ethanol 4.17%) was 14.0 % w/w. For the same molecule, the “maximum plasma concentration (Cmax)” value [4] was 1.34 ng/mL, the “safety margin for AUC, rat vs estimated human exposure” value ([5]; 0.3%) was 836 fold and the “AUC, estimated human systemic exposure” value ([5]; 0.3% cream) was “approx. 10 ng/mL*h”. For the same molecule, the “safety margin for AUC, rat vs estimated human exposure” value ([5]; 1%) was 261 fold, the “AUC, estimated human systemic exposure” value ([5]; 1% cream) was roughly 32 ng·h/mL and the “safety margin for Cmax, rat vs estimated human exposure” value ([5]; 1% cream-gel) was “approx. 242 fold”. The “Dose MiniPig API (safety factor)” value ([5]; Human dermal 0.3% formulation vs minipig dose) was 34 and the “Dose MiniPig API (safety factor)” value ([5]; Human dermal 1.0% formulation vs minipig dose) was 11.

In the case of `C=CC[C@@H]1/C=C(\C)C[C@H](C)C[C@H](OC)[C@H]2O[C@@](O)(C(=O)C(=O)N3CCCC[C@H]3C(=O)O[C@H](/C(C)=C/[C@@H]3CC[C@@H](O)[C@H](OC)C3)[C@H](C)[C@@H](O)CC1=O)[C@H](C)C[C@@H]2OC` [tacrolimus 0.1%, tacrolimus], the reduction in scratch (DS-Nh mice; day 14, twice daily topical treatment) is reported as 20% and the “mice exhibiting normalization of skin pathology” value (DS-Nh mice; two weeks of treatment, H&E histology, partial normalization for tacrolimus) is reported as 40 % of mice.
